In patent US20050153870A1, “Medicinal composition for diagnosis, prevention, or therapy of multiple risk factor syndrome” (priority 2002, published 2005):
Marks after values point to notes of the source that are not given here.

Key:
[1] = system: Db/db mouse, Zucker rat; assay: Insulin sensitivity test; assay type: in vivo; conditions: feed containing 0.1% for one week, hereditary obese animal
[2] = system: C57BL/6j-ob/ob mice; assay: AS-6 in feed to ob/ob mice (Example 3); assay type: in vivo, mouse; conditions: 0.1% in feed, 1 week
Protocol: C57BL/6j-ob/ob mice, which were model animals of multiple risk factor syndrome, were raised for a week with powered feed in which an ascochlorin derivative, 4-O-carboxymethylascochlorin (AS-6), was mixed in a content of 0.1%. Thereafter, the weight, blood sugar, blood insulin, and blood neutral fat were measured.

## CC(C=CC1(C)C(C)CCC(=O)C1C)=CCc1c(O)c(C=O)c(C)c(Cl)c1OCC(=O)O (centres unmarked) [AS-6, 4-O-carboxymethylascochlorin]
[1]
  sensitivity to insulin: insulin was significantly improved.
[2]
  Blood sugar, change vs ob/ob control group: −32.4%*
  Body weight, change vs ob/ob control group: ns
  Cholesterol, change vs ob/ob control group: ns
  Free fatty acid, change vs ob/ob control group: −43.6%**
  Insulin, change vs ob/ob control group: −33.8%
  Neutral fat, change vs ob/ob control group: −61.0%**
[2]; ob/ob control 1.224 ± 0.072
  Free fatty acid: 0.690 ± 0.078 mEq/L
[2]; ob/ob control 48.5 ± 0.6
  Body weight: 47.8 ± 0.6 g
[2]; ob/ob control 73.9 ± 16.7
  Insulin: 48.9 ± 8.2 μU/mL9
[2]; ob/ob control 162.4 ± 16.0
  Neutral fat: 63.2 ± 7.2 mg/dL
[2]; ob/ob control 268.5 ± 24.2
  Cholesterol: 249.7 ± 12.1 mg/dL
[2]; ob/ob control 360.4 ± 44.9
  blood sugar: 243.8 ± 15.6 mg/dL
[2]; ob/ob mice
  risk factors except for body weight and blood cholesterol: significantly reduced
